Test results published in PMC12298351, “Novel 3,19-(N-Phenyl-3-(4-fluorophenyl)-pyrazole) Acetal of Andrographolide Promotes Cell Cycle Arrest and Apoptosis in MDA-MB-231 Breast Cancer Cells” (Pharmaceuticals, 2025).

Legend:
[1] = test system: BT-549; type: cell-based; conditions: BT-549, Breast
[2] = test system: K-562; conditions: K-562, Leukemia
[3] = test system: M14; type: cell-based; conditions: M14, Melanoma
[4] = test system: SN12C
[5] = test system: SNB-19; type: cell-based; conditions: SNB-19, CNS
[6] = test system: SF-295; conditions: SF-295, CNS
[7] = test system: A549/ATCC
[8] = DPPH radical scavenging assay; conditions: 25 µM test compound, 0.1 mM DPPH, acetonitrile, 30 min
Experimental: A stable free radical DPPH (2,2-Diphenyl-1-picrylhydrazyl) assay was employed to test the antioxidant activity of all the synthesized compounds. Concisely, 25 µM of the test compounds were dissolved in acetonitrile and combined with 0.1 mM of DPPH (in acetonitrile) in a 1:2 ratio (80 µL and 160 µL). Then, the mixture was left undisturbed in the dark for 30 min at room temperature. After 30 min, the absorbance of the solutions was instantly measured at 517 nm using a Varioskan Multiplate Reader (Thermo Fisher Scientific, Mumbai, India). Ascorbic acid (in acetonitrile) was used as the positive control, and andrographolide and isoandrogapholide (in acetonitrile) were used as the standards. The following equation was used to determine the DPPH radical scavenging activity:% Radical scavenging activity = (Ac − As)/Ac × 100 where Ac = the absorbance of the blank (DPPH solution), and As = the absorbance of the test samples

[9] = test system: DU-145; conditions: DU-145, Prostate
[10] = test system: 786-0; conditions: 786-0, Renal
[11] = test system: NCI-H23
[12] = test system: RPMI-8226; conditions: RPMI-8226, Leukemia
[13] = test system: RXF 393; conditions: RXF 393, Renal
[14] = test system: NCI-H226
[15] = test system: OVCAR-4; type: cell-based; conditions: OVCAR-4, Ovarian
[16] = test system: SK-MEL-5; conditions: SK-MEL-5, Melanoma
[17] = test system: NCI/ADR-RES; conditions: Ovarian
[18] = test system: COLO 205; conditions: COLO 205, Colon
[19] = test system: MCF7; conditions: MCF7, Breast
[20] = test system: OVCAR-5; conditions: OVCAR-5, Ovarian
[21] = test system: OVCAR-8; conditions: OVCAR-8, Ovarian
[22] = test system: CCRF-CEM
[23] = test system: UO-31; conditions: UO-31, Renal
[24] = test system: SW-620; conditions: SW-620, Colon
[25] = test system: SK-MEL-2; conditions: SK-MEL-2, Melanoma
[26] = test system: UACC-62; conditions: UACC-62, Melanoma
[27] = test system: HT29; conditions: HT29, Colon
[28] = test system: SK-OV-3; conditions: SK-OV-3, Ovarian
[29] = read-out: 50% lethal concentration (LC50)

## C=C1CCC2C3(C)COC(c4cn(-c5ccccc5)nc4-c4cccc([N+](=O)[O-])c4)OC3CCC2(C)C1CC=C1C(=O)OCC1O (stereo not drawn) [1b]
[1]
  GI50: 1.94 µM
  Total growth inhibition (TGI): 3.8 µM
[2]
  GI50: 2.16 µM
  Total growth inhibition (TGI): > 100 µM
[2]; [29]
  CC50: > 100 µM
[3]
  GI50: 2.08 µM
  LC50 (50% lethal concentration): 9.85 µM
  Total growth inhibition (TGI): 4.52 µM
[4]; Renal
  GI50: 2.93 µM
  Total growth inhibition (TGI): 10.3 µM
[4]; read-out: 50% lethal concentration (LC50), Renal
  CC50: > 100 µM
[5]
  GI50: 3.64 µM
  Total growth inhibition (TGI): 15 µM
[5]; [29]
  CC50: 60 µM
[6]
  GI50: 1.68 µM
  Total growth inhibition (TGI): 3.19 µM
[6]; [29]
  CC50: 6.05 µM
[7]; Non-Small Cell Lung
  Total growth inhibition (TGI): > 100 µM
[7]; Non-Small-Cell Lung
  GI50: 3.62 µM
[7]; read-out: 50% lethal concentration (LC50), Non-Small Cell Lung
  CC50: > 100 µM
[8]
  % DPPH radical scavenging activity: 60.68%
[9]
  GI50: 4.11 µM
  Total growth inhibition (TGI): 24.3 µM
[9]; [29]
  CC50: > 100 µM
[10]
  GI50: 3.04 µM
  Total growth inhibition (TGI): 10.3 µM
[10]; [29]
  CC50: > 100 µM
[11]; NCI-H23, Non-Small Cell Lung
  Total growth inhibition (TGI): 3.55 µM
[11]; NCI-H23, Non-Small-Cell Lung
  GI50: 1.83 µM
[11]; read-out: 50% lethal concentration (LC50), NCI-H23, Non-Small Cell Lung
  CC50: 6.87 µM
[12]
  GI50: 2.45 µM
  Total growth inhibition (TGI): > 100 µM
[12]; [29]
  CC50: > 100 µM
[13]
  GI50: 1.62 µM
  Total growth inhibition (TGI): 3.2 µM
[13]; [29]
  CC50: 6.32 µM
[14]; NCI-H226, Non-Small Cell Lung
  Total growth inhibition (TGI): 6.59 µM
[14]; NCI-H226, Non-Small-Cell Lung
  GI50: 2.38 µM
[14]; read-out: 50% lethal concentration (LC50), NCI-H226, Non-Small Cell Lung
  CC50: > 100 µM
[15]
  GI50: 4.05 µM
  Total growth inhibition (TGI): > 100 µM
[15]; [29]
  CC50: > 100 µM
[16]
  GI50: 1.63 µM
  Total growth inhibition (TGI): 3 µM
[16]; [29]
  CC50: 5.53 µM
[17]
  GI50: 2.98 µM
[18]
  GI50: 2.41 µM
  Total growth inhibition (TGI): 5.06 µM
[18]; [29]
  CC50: 12.7 µM
[19]
  GI50: 2.64 µM
  Total growth inhibition (TGI): > 100 µM
[19]; [29]
  CC50: > 100 µM
[20]
  GI50: 2.06 µM
  Total growth inhibition (TGI): 5.05 µM
[21]
  GI50: 1.9 µM
  Total growth inhibition (TGI): 5.04 µM
[21]; [29]
  CC50: > 100 µM
[22]; Leukemia
  GI50: 1.14 µM
  Total growth inhibition (TGI): 5.01 µM
[22]; read-out: 50% lethal concentration (LC50), Leukemia
  CC50: > 100 µM
[23]
  GI50: 1.82 µM
  Total growth inhibition (TGI): 5.46 µM
[23]; [29]
  CC50: 35.7 µM
[24]
  GI50: 2.21 µM
  Total growth inhibition (TGI): 5.13 µM
[24]; [29]
  CC50: > 100 µM
[25]
  GI50: 1.78 µM
  Total growth inhibition (TGI): 3.51 µM
[25]; [29]
  CC50: 6.94 µM
[26]
  GI50: 1.69 µM
  Total growth inhibition (TGI): 3.46 µM
[26]; [29]
  CC50: 7.06 µM
[27]
  GI50: 1.82 µM
  Total growth inhibition (TGI): 4.26 µM
[27]; [29]
  CC50: 9.95 µM
[28]
  GI50: 2.08 µM
  Total growth inhibition (TGI): > 100 µM
[28]; [29]
  CC50: > 100 µM
